The text below walks through data of article PMC12044326 (Clinical Pharmacology in Drug Development, 2025).

Data set [1] deals with T1, OATP1B3 (Homo sapiens, UniProt Q9NPD5).
T1 sequence (Q9NPD5 1-702): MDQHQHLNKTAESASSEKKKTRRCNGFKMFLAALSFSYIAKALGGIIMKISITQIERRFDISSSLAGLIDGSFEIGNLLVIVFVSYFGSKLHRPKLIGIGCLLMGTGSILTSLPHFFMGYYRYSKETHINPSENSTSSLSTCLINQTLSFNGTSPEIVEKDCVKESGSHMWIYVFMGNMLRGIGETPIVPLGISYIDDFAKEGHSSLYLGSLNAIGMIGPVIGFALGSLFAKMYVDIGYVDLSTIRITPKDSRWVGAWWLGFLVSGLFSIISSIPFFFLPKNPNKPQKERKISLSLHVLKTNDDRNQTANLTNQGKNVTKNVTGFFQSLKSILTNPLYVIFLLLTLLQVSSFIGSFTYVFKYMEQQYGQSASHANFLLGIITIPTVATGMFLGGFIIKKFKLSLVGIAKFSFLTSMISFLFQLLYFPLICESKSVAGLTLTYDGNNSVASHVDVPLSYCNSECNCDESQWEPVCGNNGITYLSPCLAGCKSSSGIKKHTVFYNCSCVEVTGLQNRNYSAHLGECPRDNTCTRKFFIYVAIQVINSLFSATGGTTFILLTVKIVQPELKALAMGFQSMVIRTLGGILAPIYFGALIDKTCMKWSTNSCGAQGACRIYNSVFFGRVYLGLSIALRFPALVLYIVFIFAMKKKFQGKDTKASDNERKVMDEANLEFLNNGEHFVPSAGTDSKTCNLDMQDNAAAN

A further data set deals with T2, P‐gp (Homo sapiens, UniProt P08183).
T2 construct: Caco-2 cells were obtained from American Type Culture Collection; host or cells: Caco-2 cell monolayers
It counts as in vitro ADME. The procedure:
(§1) Prior to the experiments,
(§2) The cells were cultured at […]
(§3) measuring the trans-epithelial electrical resistance (TEER) value. The TEER values of cell […]
(§4) The volumes of the replaced […]
(§5) shaker at 37°C until use.
(§6) Apical to Basal Transport (A to B).
(§7) (soticlestat or quinidine) were added.
(§8) After incubation for 1 hour, 100 μL […]
(§9) radioactivity using an LSC. […]
(§10) collected and measured for the radioactivity using an LSC.
(§11) Basal to Apical Transport (B to A).
(§12) (soticlestat or quinidine) were added. […] Then […]
(§13) cells were incubated at 37°C.
(§14) HBSS solution were added to the apical side.

In a further data set the target is T3, P‐glycoprotein (P‐gp) (Homo sapiens, UniProt P08183).
T3 construct: Caco-2 cells were obtained from American Type Culture Collection; host or cells: Caco-2 cell monolayers
It counts as in vitro ADME. The protocol: as §1, §2, §3, §4, §5, §6, §7, §8, §9, §10, §11, §12, §13, §14

For data set [2], the target named is T1, OATP1B3. This is another data set of the same source.

T3 sequence (P08183 whole entry): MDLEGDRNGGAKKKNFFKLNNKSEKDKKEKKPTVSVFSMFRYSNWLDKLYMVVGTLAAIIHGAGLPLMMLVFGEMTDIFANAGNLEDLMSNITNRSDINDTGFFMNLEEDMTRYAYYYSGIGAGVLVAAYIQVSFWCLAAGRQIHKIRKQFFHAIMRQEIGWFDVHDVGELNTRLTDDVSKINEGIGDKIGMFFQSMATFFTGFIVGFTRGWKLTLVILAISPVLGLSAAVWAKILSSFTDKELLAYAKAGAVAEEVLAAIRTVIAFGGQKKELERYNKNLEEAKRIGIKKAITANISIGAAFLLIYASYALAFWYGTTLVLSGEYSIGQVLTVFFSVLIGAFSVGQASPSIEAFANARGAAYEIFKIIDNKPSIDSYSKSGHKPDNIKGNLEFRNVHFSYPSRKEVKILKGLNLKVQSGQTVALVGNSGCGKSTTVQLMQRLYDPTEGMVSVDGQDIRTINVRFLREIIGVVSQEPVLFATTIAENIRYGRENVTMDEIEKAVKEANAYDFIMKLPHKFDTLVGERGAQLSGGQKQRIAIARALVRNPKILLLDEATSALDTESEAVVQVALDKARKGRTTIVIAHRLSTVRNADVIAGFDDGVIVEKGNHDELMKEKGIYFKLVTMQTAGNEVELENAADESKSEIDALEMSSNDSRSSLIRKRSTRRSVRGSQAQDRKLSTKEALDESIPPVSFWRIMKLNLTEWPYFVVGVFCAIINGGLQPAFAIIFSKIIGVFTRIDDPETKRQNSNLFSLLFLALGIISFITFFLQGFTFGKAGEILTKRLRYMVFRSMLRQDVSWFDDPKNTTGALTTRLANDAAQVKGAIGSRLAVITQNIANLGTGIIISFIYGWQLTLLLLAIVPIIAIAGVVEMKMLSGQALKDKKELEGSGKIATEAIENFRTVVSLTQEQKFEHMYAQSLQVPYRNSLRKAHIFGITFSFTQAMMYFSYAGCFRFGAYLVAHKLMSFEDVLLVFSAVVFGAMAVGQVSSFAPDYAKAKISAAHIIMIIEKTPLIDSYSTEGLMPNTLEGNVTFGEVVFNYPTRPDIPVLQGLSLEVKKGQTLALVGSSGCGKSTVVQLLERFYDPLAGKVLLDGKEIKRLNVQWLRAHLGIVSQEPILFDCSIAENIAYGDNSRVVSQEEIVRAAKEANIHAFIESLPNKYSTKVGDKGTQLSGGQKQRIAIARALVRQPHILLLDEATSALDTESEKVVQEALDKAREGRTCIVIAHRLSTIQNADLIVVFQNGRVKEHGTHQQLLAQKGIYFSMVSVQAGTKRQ
T2 sequence (P08183 whole entry): as above

For `O=C(c1cccnc1-c1ccncc1)N1CCC(O)(Cc2ccccc2)CC1` [Soticlestat], on OATP1B3 [1], the “substrate for OATP1B3” value is reported as “not a substrate”. In addition, the “substrate for P‐gp” value at P‐gp was “not a substrate”. Also, on P‐glycoprotein (P‐gp), the IC50 (in general, the concentration needed to halve the response being measured) amounted to 81.1 µM and the affinity corresponds to a Ki of 80 µM. In addition, on OATP1B3 [2], the “inhibition of OATP1B3” value was “did not demonstrate clinically relevant inhibition”.
